Reference: US12686682B2, “Indazole acetylene derivatives” (Hoffmann-La Roche Inc., priority 2020, dated 2026)

These compounds were tested against T1, Phospho EGFR LRCS (BaF3-LRCS cell line) (Homo sapiens, UniProt P00533, C797S/L858R) (assay: HTRF Phospho EGFR LRCS Assay (Cellular)). Settings: BaF3-LRCS cells, 4 hours incubation, HTRF phospho-EGFR readout.
T1 construct: host or cells: BaF3 (BaF3-LRCS), kept under puromycin selection
Type: cell-based
Procedure: HTRF Phospho EGFR LRCS Assay (Cellular)
BaF3-LRCS cell line were obtained from Crownbio (San Diego, CA, USA). Cells were maintained at 37° C., 5% C02 in RPMI ATCC (Gibco 31870)+2 mM Glutamine+0.5 μg/ml Puromycin supplemented with 10% fetal bovine serum (FBS) (Gibco).
Cells are transferred as above to Greiner Bio-One, Nr. 784-08 micro-titerplate at 20000 cells/well in 12.5 μl of growth medium/well after the plates had been pre-filled with 12.5 nl of DMSO solutions of the to be tested compounds (in dose response) or DMSO only. After spinning the plates at 300×g for 30 seconds the cells were incubated for 4 hours at 37 C, 5% C02, 95% humidity. The cells were lysed by adding to the compound mix 4 µl/well of the supplemented lysis buffer (Cis-bio, Phospho-EGFR HTRF kit, 64EG1PEH), followed by incubation for 30 min at room temperature with shaking (400 rpm). The plates were then frozen and stored overnight at −80° C. On the next day and after thawing the plates, 4 μl of a mixture of anti-Phospho-EGFR Cryptate and of anti-Phospho-EGFR-d2 antibody solutions prepared in the supplied detection buffer was added to each well. The lidded plates were then incubated for 4 h at room temperature before reading the fluorescence emission at 616 and 665 nm using an Envision reader (Perkin Elmer). Data was analyzed in similar fashion as above using the normalized ratio of the 665 to 616 signals multiplied by 10000.

T1 sequence (P00533 25-1210 C797S/L858R): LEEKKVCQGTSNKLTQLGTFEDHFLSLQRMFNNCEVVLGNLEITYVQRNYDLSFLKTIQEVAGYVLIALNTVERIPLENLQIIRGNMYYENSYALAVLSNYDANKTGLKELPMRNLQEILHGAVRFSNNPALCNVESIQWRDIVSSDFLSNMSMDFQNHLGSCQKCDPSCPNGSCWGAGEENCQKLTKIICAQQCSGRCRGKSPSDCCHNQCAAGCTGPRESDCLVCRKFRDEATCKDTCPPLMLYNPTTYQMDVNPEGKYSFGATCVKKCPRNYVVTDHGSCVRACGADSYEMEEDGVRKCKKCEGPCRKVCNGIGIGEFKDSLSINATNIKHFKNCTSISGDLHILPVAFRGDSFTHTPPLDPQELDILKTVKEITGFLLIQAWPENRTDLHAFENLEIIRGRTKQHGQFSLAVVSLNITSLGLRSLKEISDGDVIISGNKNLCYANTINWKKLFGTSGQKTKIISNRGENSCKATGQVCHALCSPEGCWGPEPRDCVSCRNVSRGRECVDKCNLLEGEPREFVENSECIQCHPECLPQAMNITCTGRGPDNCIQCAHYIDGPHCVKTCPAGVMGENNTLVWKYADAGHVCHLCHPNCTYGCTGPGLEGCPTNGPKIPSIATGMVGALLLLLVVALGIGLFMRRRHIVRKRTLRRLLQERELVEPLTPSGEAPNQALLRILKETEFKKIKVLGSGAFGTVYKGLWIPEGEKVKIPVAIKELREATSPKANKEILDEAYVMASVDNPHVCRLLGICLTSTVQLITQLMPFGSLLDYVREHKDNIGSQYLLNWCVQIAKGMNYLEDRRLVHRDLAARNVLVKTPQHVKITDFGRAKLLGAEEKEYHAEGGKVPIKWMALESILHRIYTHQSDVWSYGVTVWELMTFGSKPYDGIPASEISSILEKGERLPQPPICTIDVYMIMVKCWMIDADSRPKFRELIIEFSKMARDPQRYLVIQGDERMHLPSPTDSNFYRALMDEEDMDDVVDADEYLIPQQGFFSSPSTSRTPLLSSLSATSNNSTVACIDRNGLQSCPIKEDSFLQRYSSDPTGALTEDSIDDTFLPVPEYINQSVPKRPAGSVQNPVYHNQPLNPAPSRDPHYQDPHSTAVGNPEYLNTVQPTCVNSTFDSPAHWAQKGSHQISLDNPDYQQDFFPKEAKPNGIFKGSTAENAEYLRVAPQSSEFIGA

| SMILES | IC50 [nM] |
| --- | --- |
| Cc1c(C#Cc2ccc(CN3CCC(CO)CC3)cc2)cc(C(F)(F)F)c2cn(C(C(=O)Nc3nccs3)c3ncn4c3CCC4(C)C)nc12 (centres unmarked) [Example 8, 2-(5,5-Dimethyl-6,7-dihydropyrrolo[1,2-c]imidazol-1-yl)-2-[6-[2-[4-[[4-(hydroxymethyl)-1-piperidyl]methyl]phenyl]ethynyl]-7-methyl-4-(trifluoromethyl)indazol-2-yl]-N-thiazol-2-yl-acetamide] | 12 |
| Cc1c(C#Cc2ccc(CN3CCC(CO)CC3)cc2)cc(C(F)F)c2cn(C(C(=O)Nc3nccs3)c3ncn4c3C[C@@H](F)C4)nc12 (stereo partly drawn) [Example 1, 2-[4-(Difluoromethyl)-6-[2-[4-[[4-(hydroxymethyl)-1-piperidyl]methyl]phenyl]ethynyl]-7-methyl-indazol-2-yl]-2-[(6R)-6-fluoro-6,7-dihydro-5H-pyrrolo[1,2-c]imidazol-1-yl]-N-thiazol-2-yl-acetamide] | 22 |
| Cc1c(C#Cc2ccc(CN3CCC(CO)CC3)cc2)cc(C(F)(F)F)c2cn(C(C(=O)Nc3nccs3)c3ncn4c3C[C@@H](F)C4)nc12 (stereo partly drawn) [Example 3, 2-[(6R)-6-Fluoro-6,7-dihydro-5H-pyrrolo[1,2-c]imidazol-1-yl]-2-[6-[2-[4-[[4-(hydroxymethyl)-1-piperidyl]methyl]phenyl]ethynyl]-7-methyl-4-(trifluoromethyl)indazol-2-yl]-N-thiazol-2-yl-acetamide] | 15 |
| Cc1c(C#Cc2ccc(CN3CCC(CO)CC3)cc2)cc(C(F)F)c2cn(C(C(=O)Nc3nccs3)c3ncn4c3CCC4)nc12 (centres unmarked) [Example 2, 2-[4-(Difluoromethyl)-6-[2-[4-[[4-(hydroxymethyl)-1-piperidyl]methyl]phenyl]ethynyl]-7-methyl-indazol-2-yl]-2-(6,7-dihydro-5H-pyrrolo[1,2-c]imidazol-1-yl)-N-thiazol-2-yl-acetamide] | 23 |
| Cc1c(C#Cc2ccc(CN3CCC(CO)CC3)cc2)cc(C(F)F)c2cn(C(C(=O)Nc3nccs3)c3ncn4c3CCC4(C)C)nc12 (centres unmarked) [Example 5, 2-[4-(Difluoromethyl)-6-[2-[4-[[4-(hydroxymethyl)-1-piperidyl]methyl]phenyl]ethynyl]-7-methyl-indazol-2-yl]-2-(5,5-dimethyl-6,7-dihydropyrrolo[1,2-c]imidazol-1-yl)-N-thiazol-2-yl-acetamide] | 11 |

Other lines, results leading:

| IC50 [nM] | SMILES |
| --- | --- |
| 11 | Cc1c(C#Cc2ccc(CN3CCC(CO)CC3)cc2)cc(C(F)(F)F)c2cn(C(C(=O)Nc3nccs3)c3ncn4c3CCC43CC3)nc12 (centres unmarked) [Example 7] |
| 10 | Cc1c(C#Cc2ccc(CN3CCC(CO)CC3)cc2)cc(C(F)F)c2cn(C(C(=O)Nc3nccs3)c3ncn4c3CCC43CC3)nc12 (centres unmarked) [Example 6] |
| 9 | Cc1c(C#Cc2ccc(CN3CCC(CO)CC3)cc2)cc(C(F)(F)F)c2cn(C(C(=O)Nc3nccs3)c3ncn4c3CCC4)nc12 (centres unmarked) [Example 4, 2-(6,7-Dihydro-5H-pyrrolo[1,2-c]imidazol-1-yl)-2-[6-[2-[4-[[4-(hydroxymethyl)-1-piperidyl]methyl]phenyl]ethynyl]-7-methyl-4-(trifluoromethyl)indazol-2-yl]-N-thiazol-2-yl-acetamide] |
